In article PMC2922759 (European journal of pharmacology, 2009):
Several values for one entry are separate records, joined by “and”; a condition that tells them apart may be missing. Identical values can stand only once. Entries after “also recorded” stand apart in the source; their conditions may differ.

Columns and labels:
[1] = system: mechanically-induced cough; test: Feline mechanically-induced cough; format: in vivo, cat; conditions: intra-vertebral artery, 0.001–0.3 mg/kg cumulative
[2] = Pharmacokinetic profile in the guinea pig; format: in vivo
Serotonin 5-HT6 = Serotonin 5-HT6 (Homo sapiens, UniProt P50406); test: MDS Pharma Services counterscreen binding; conditions: semi-quantitative
Sequence of Serotonin 5-HT6 (P50406 whole entry): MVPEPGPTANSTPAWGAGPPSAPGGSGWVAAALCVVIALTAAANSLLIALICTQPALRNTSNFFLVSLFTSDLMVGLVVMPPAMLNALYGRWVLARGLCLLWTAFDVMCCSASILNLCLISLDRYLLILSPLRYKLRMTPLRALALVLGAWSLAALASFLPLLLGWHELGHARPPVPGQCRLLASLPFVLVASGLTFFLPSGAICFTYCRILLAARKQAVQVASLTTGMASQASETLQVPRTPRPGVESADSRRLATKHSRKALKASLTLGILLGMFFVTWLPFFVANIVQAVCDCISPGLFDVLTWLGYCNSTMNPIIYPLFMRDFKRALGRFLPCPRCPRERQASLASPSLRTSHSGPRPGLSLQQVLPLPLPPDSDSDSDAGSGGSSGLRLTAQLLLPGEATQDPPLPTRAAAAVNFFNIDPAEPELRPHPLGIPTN

[3] = system: MDS Pharma enzyme and receptor binding assays (benzodiazepine, bradykinin, dopamine D1/D2/D4, GABA, glutamate, glycine, serotonin, tachykinin); test: MDS Pharma Services counterscreen panel, remaining assays; conditions: tested at 10 μM; active = greater than 50% inhibition
[4] = Pharmacokinetic profile in the dog; format: in vivo
Dog NOP receptor = test: NOP receptor binding, brain; conditions: Mean±S.E.M.
[5] = Safety pharmacology rat studies; format: in vivo; conditions: oral doses up to 30 mg/kg, data not shown
Dopamine D3 = Dopamine D3 (Homo sapiens, UniProt P35462); test: MDS Pharma Services counterscreen binding; conditions: semi-quantitative
Sequence of Dopamine D3 (P35462 whole entry): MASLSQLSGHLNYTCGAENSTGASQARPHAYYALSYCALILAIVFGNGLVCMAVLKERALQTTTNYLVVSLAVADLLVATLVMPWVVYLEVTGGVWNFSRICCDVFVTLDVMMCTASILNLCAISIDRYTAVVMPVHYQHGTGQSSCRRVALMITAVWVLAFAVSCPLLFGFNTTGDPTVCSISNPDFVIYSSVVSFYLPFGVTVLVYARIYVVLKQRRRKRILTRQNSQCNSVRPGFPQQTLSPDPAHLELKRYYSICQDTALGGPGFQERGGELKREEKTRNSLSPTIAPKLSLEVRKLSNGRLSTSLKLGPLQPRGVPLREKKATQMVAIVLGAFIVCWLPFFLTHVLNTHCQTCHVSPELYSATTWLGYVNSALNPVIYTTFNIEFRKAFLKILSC

Dopamine transporter = Dopamine transporter (Homo sapiens, UniProt Q01959); test: MDS Pharma Services counterscreen binding; conditions: semi-quantitative
Sequence of Dopamine transporter (Q01959 whole entry): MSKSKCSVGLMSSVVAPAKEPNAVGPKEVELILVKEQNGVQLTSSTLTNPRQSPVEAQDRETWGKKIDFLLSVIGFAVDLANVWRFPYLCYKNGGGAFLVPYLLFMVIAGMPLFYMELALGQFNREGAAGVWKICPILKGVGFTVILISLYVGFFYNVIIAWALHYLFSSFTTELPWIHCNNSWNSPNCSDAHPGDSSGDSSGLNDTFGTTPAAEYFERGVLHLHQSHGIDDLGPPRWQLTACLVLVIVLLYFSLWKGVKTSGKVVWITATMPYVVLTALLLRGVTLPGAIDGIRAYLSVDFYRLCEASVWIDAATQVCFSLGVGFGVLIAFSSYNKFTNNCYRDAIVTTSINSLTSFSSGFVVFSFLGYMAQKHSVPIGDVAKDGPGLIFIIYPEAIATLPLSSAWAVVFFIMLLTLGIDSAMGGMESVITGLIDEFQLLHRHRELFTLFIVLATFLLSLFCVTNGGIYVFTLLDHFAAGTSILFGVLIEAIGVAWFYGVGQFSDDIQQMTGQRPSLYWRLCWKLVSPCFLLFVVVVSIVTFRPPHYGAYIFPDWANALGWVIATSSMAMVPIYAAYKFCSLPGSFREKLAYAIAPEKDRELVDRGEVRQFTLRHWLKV

Rat NOP receptor = Rat NOP receptor (Rattus norvegicus, UniProt P35370); test: NOP receptor binding, clone; conditions: rat clone (CHO cells); Mean±S.E.M.
Sequence of Rat NOP receptor (P35370 whole entry): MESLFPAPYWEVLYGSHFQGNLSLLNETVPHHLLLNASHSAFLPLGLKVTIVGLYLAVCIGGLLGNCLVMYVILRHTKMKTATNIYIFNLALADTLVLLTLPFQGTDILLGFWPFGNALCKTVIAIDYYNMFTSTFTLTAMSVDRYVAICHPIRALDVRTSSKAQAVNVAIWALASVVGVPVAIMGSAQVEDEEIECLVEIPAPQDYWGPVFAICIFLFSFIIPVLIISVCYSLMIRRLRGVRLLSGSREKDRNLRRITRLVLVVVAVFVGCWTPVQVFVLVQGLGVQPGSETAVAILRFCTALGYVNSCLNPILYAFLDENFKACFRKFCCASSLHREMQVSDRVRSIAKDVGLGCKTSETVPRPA

[6] = biological target: human KOP opioid receptor (Homo sapiens, UniProt P41145); test: Opioid receptor binding, [3H]diprenorphine; conditions: human KOP in CHO cell membranes, Mean±S.E.M.
Sequence of human KOP opioid receptor (P41145 whole entry): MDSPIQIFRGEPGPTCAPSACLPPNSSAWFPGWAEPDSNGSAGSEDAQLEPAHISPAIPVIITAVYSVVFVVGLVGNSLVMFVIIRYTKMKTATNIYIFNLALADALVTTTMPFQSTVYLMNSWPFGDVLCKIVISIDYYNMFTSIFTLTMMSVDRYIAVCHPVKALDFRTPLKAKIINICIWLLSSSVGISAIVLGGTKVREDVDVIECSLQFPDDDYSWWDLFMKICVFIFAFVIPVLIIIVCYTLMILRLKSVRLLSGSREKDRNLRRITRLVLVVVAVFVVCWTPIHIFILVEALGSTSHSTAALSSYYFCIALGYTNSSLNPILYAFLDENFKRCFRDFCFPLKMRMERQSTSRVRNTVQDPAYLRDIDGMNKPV

[7] = biological target: human DOP opioid receptor (Homo sapiens, UniProt P41143); test: Opioid receptor binding, [3H]diprenorphine; conditions: human DOP in CHO cell membranes, Mean±S.E.M.
Sequence of human DOP opioid receptor (P41143 whole entry): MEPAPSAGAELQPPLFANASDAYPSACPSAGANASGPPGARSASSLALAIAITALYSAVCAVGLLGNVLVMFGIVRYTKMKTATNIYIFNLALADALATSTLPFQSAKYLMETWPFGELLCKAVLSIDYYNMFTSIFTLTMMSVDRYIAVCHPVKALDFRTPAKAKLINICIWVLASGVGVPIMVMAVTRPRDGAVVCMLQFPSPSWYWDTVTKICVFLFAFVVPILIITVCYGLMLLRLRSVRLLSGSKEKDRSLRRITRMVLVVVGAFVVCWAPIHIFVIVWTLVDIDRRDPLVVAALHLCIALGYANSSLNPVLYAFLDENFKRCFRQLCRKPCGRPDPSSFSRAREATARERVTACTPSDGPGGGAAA

Cat NOP receptor = test: NOP receptor binding, brain; conditions: Mean±S.E.M.
[8] = General tolerability / overt behavioral effects; format: in vivo; conditions: guinea pig, rat, cat and dogs
[9] = system: conditioned place preference; test: Rat conditioned place preference; format: in vivo; conditions: for conditioned place preference (time spent in drug paired side): SCH 486757 10 mg/kg p.o., amphetamine 3 mg/kg, morphine 10 mg/kg, 4 pairings
Guinea pig NOP receptor = Guinea pig NOP receptor (Cavia porcellus, UniProt P47748); test: NOP receptor binding, brain; conditions: guinea pig brain (cortex); Mean±S.E.M.
Sequence of Guinea pig NOP receptor (P47748 whole entry): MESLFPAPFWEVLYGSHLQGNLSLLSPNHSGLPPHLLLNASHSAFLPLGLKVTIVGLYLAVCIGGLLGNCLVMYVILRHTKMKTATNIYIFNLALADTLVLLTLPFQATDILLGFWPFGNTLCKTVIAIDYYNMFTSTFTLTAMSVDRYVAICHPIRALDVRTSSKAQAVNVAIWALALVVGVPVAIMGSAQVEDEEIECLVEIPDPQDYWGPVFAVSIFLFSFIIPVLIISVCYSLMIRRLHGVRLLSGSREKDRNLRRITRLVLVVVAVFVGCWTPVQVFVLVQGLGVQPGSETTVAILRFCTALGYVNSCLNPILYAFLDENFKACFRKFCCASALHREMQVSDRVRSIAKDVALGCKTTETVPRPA

Sigma (non-selective) = test: MDS Pharma Services counterscreen binding; conditions: Sigma (non-selective, guinea pig); semi-quantitative
capsaicin-induced cough = conditions: for doses producing significant CNS effects (lethargy, ataxia): guinea pig, in vivo, po
[10] = Pharmacokinetic profile in the rat; format: in vivo; conditions: 10 mg/kg p.o.
Sodium channel, site 2 = test: MDS Pharma Services counterscreen binding; conditions: site 2 (rat), semi-quantitative

In the case of `OC1(c2ncccn2)CC2CCC(C1)N2C(c1ccccc1Cl)c1ccccc1Cl` (centres unmarked) [SCH 486757, 8-[Bis(2-Chlorophenyl)Methyl]-3-(2-Pyrimidinyl)-8-Azabicyclo-[3.2.1.]Octan-3-Ol], the “effect on inspiratory electromyogram amplitude” value [1] is reported as “did not significantly affect; also recorded: no significant effect”, the AUC ([2]; 0.03 mg/kg p.o.) is reported as 0.027 µM·h and the Tmax ([2]; 0.03 mg/kg p.o.) is reported as 3 h. For the same molecule, the “plasma concentration during the 2- to 4-hour time period” value ([2]; 0.03 mg/kg p.o.) was “about 2 nM”, the Cmax ([2]; 0.03 mg/kg p.o., 0.03 mg/kg) was 3.1 nM and 3 nM and the AUC ([2]; 0.30 mg/kg p.o.) was 0.242 µM·h. The Cmax ([2]; 0.30 mg/kg p.o.) was 31 nM, the Tmax ([2]; 0.30 mg/kg p.o.) was 3 h and the Ki (Serotonin 5-HT6) was 2350 nM. The “activity in remaining MDS Pharma enzyme and receptor binding assays” value [3] was “did not show significant affinity”, the “half-life (t1/2)” value ([4]; 3 mg/kg intravenous) was 7.9 h and the “mean AUC” value ([4]; 3 mg/kg intravenous) was 5.68 µM·h. The AUC ([4]; 3 mg/kg p.o.) was 1.84 µM·h, the Cmax ([4]; 3 mg/kg p.o.) was 540 nM and the Tmax ([4]; 3 mg/kg p.o.) was 0.8 h. The “percent bioavailability (F%)” value ([4]; 3 mg/kg p.o. vs intravenous) was 32%, the Ki (Dog NOP receptor) was 5.3 ± 0.71 nM and the “effect on blood gases or respiratory function parameters” value [5] was “did not affect”. For the same molecule, the Ki (Dopamine D3) was 3660 nM, the Ki (Dopamine transporter) was 8430 nM and the Ki (Rat NOP receptor) was 6.6 ± 0.15 nM. It also gave a Ki [6] of 590 ± 40 nM, a Ki [7] of 14700 ± 2560 nM and a Ki (Cat NOP receptor) of 6.7 ± 0.67 nM. The “tolerability, overt behavioral effects” value [8] was “well tolerated”, the “number of entries into the drug paired side” value ([9]; 10 mg/kg p.o.) was “did not alter” and the “conditioned place preference (time spent in drug paired side)” value (from here on “conditioned place preference”) [9] was “without effect; also recorded: did not produce any conditioned place preference; also recorded: no effect”. For the same molecule, the Ki (Guinea pig NOP receptor) was 5.4 ± 0.32 nM, the Ki (Sigma (non-selective)) was 7120 nM and the “antitussive activity at 2 and 6 h” value (capsaicin-induced cough; 0.1 mg/kg, p.o., 2 and 6 h) was “Significant antitussive activity”. The “inhibition of capsaicin-evoked coughing, chronic dosing” value (capsaicin-induced cough; 1 mg/kg p.o., 5-day BID regimen, 2 h post last dose) was 40 ± 11%, the “inhibition of capsaicin-evoked coughing, acute dosing” value (capsaicin-induced cough; 1 mg/kg p.o., single dose, 2 h post treatment) was 46 ±9% and the “inhibition of cough at 24 h” value (capsaicin-induced cough; 1 mg/kg, p.o., 24 h, data not shown) was “did not inhibited cough”. For the same molecule, the “tolerance to antitussive activity” value (capsaicin-induced cough; 5-day BID dosing regimen, 1 mg/kg p.o.) was “does not produce tolerance”, the “antitussive effect in presence of naltrexone” value (capsaicin-induced cough; SCH 486757 3 mg/kg p.o., naltrexone 10 mg/kg p.o., 2 h) was “not by naltrexone” and the “ED50 against capsaicin-induced cough” value (capsaicin-induced cough; p.o., 4 h post administration) was 0.04 mg/kg. For the same molecule, the “maximum efficacy, cough suppression” value (capsaicin-induced cough; p.o., 4 h post administration) was 66 ± 6%, the AUC [10] was 1.29 µM·h and the Cmax [10] was 127 nM. The Tmax [10] was 3.3 h and the Ki (Sodium channel, site 2) was 5580 nM.
With `CC(N)Cc1ccccc1` (centres unmarked) [amphetamine, reference compound] the “conditioned place preference” value [9] was “induced a marked conditioned place preference; also recorded: increased the time spent on the drug paired side”.
In the case of `COc1ccc2c3c1O[C@H]1[C@@H](O)C=C[C@H]4[C@@H](C2)N(C)CC[C@@]341` [codeine, reference compound], the “doses producing significant CNS effects (lethargy, ataxia)” value (capsaicin-induced cough) is reported as “higher than 60 mg/kg” and the “antitussive efficacy compared between SCH 486757 and standards” value (capsaicin-induced cough; p.o., 4 h) is reported as “comparable antitussive efficacies”.
For `COc1ccc2c(c1)[C@]13CCCC[C@@H]1[C@H](C2)N(C)CC3` [dextromethorphan, reference compound], the “doses producing significant CNS effects (lethargy, ataxia)” value (capsaicin-induced cough) was greater than 100 mg.
For `CN1CC[C@]23c4c5ccc(O)c4O[C@H]2[C@@H](O)C=C[C@H]3[C@H]1C5` [morphine, reference compound], the “conditioned place preference” value [9] was “induced a marked conditioned place preference; also recorded: increased the time spent on the drug paired side”.
For `O=C1CC[C@@]2(O)[C@H]3Cc4ccc(O)c5c4[C@@]2(CCN3CC2CC2)[C@H]1O5` [naltrexone, reference compound], the “action on capsaicin-induced cough responses, given alone” value (capsaicin-induced cough; J113397 12 mg/kg i.p., naltrexone 10 mg/kg p.o.) was “Neither naltrexone nor J113397 given alone had any actions”.
